This passage reports TGI and GI50 results from PubChem BioAssay (NCI).

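96-well plates; 48 h exposure; 5 concentrations. Endpoints by linear interpolation between flanking doses. Not reached: highest tested concentration assigned. GI50 marks 50% less growth. At the TGI there is no net growth.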 A value given as a limit tells only on which side of the number the result lay.

Test systems include UACC-257 melanoma; NCI-H460 lung; HL-60(TB) leukemia; MOLT-4 leukemia; SF-295 CNS; SW-620 colon; LOX IMVI melanoma; OVCAR-4 ovarian; MDA-MB-435; HS 578T breast.
Common to all, as to experiment: growth of human tumour cells (NCI), 48 h

With `Cc1ccc(Sc2cc([N+](=O)[O-])cc(Sc3ccc(C)cc3)c2Sc2ccc(C)cc2)cc1`, the TGI in the test with UACC-257 melanoma, in the test on NCI-H460 lung, with HL-60(TB) leukemia, with MOLT-4 leukemia, with SF-295 CNS and in the test on SW-620 colon was above 100 µM in each case. Further, in the test on LOX IMVI melanoma, the TGI is above 100 µM.

As to `O=C1OC(=O)C2C1C1(c3ccccc3)OC2(c2ccccc2)c2c(Br)c(Br)c(Br)c(Br)c21` (stereo unspecified), the TGI in the test with OVCAR-4 ovarian, with UACC-257 melanoma, with NCI-H460 lung, in the test on HL-60(TB) leukemia, in the test on MOLT-4 leukemia and with SF-295 CNS was above 100 µM in each case. For the same molecule, the TGI with SW-620 colon and with LOX IMVI melanoma was above 100 µM throughout.

As to `CCCCCCCCCCCCCCCc1nc(SCC(=O)O)n[nH]1`, the TGI with OVCAR-4 ovarian, with UACC-257 melanoma, with NCI-H460 lung, in the test with HL-60(TB) leukemia, in the test on MOLT-4 leukemia and with SF-295 CNS was above 100 µM each time. Besides, the TGI in the test with SW-620 colon and with LOX IMVI melanoma was above 100 µM in each case.

Turning to `CC(=O)NC1C(OCc2ccccc2)OC(COC(=O)CCCCCCCCCCNC(=O)CCNc2ccc([N+](=O)[O-])c3[nH]c4ccc(O)cc4c(=O)c23)C(O)C1OC(C)C(=O)N[C@H](C(=O)N[C@H](CCC(=O)O)C(N)=O)C(C)C` (stereo partly specified), the TGI in the test on OVCAR-4 ovarian, with UACC-257 melanoma, in the test with NCI-H460 lung, in the test on HL-60(TB) leukemia, with MOLT-4 leukemia and with SF-295 CNS was above 100 µM throughout. This molecule also returned a TGI with LOX IMVI melanoma of 89.2 µM.

Regarding `O=c1c2ccc(Br)cc2nc(-c2ccccc2)n1NC1OC(CO)C(O)C(O)C1O` (stereo unspecified), the TGI with OVCAR-4 ovarian, with UACC-257 melanoma, in the test on NCI-H460 lung, in the test on HL-60(TB) leukemia, in the test on MOLT-4 leukemia and in the test on SF-295 CNS was above 100 µM throughout. This molecule also had a TGI with SW-620 colon above 100 µM.

In the case of `Cn1c(=O)c2nc3sc4ccccc4c(=N)n3c2n(C)c1=O`, the TGI with OVCAR-4 ovarian, with UACC-257 melanoma, in the test on NCI-H460 lung, in the test on HL-60(TB) leukemia, in the test with MOLT-4 leukemia and with SF-295 CNS was above 100 µM in each case. Moreover, the TGI in the test with SW-620 colon and in the test with LOX IMVI melanoma was above 100 µM each time.

Consider `COc1ccc(/C=C\c2cc(OC)c(OC(C)=O)c(OC)c2)cc1`, for which the TGI in the test with OVCAR-4 ovarian is above 100 µM; with UACC-257 melanoma it was 95.1 µM; in the test on MOLT-4 leukemia, 38.6 µM; with SW-620 colon, above 100 µM.

Consider `COc1ccc2c(c1)cn1c3ccc(OC)cc3[nH]c(=O)c21`, for which the GI50 in the test with MDA-MB-435 was below 0.01 µM; with OVCAR-4 ovarian it was 0.0382 µM; in the test on UACC-257 melanoma it was 14.6 µM; in the test with HL-60(TB) leukemia, below 0.0113 µM; in the test on MOLT-4 leukemia, below 0.0183 µM; with SF-295 CNS, below 0.0169 µM. Moreover, the GI50 is below 0.0147 µM with SW-620 colon and below 0.0206 µM in the test with LOX IMVI melanoma. The TGI with MDA-MB-435 was 0.0116 µM; in the test on OVCAR-4 ovarian, 4.92 µM; with UACC-257 melanoma, 29.5 µM; in the test on HL-60(TB) leukemia, below 0.0219 µM; with MOLT-4 leukemia it was 1.04 µM; in the test on SW-620 colon, 1.36 µM. For the same molecule, the TGI in the test with LOX IMVI melanoma came out at 1.78 µM.

For `COC(=O)/C=C/c1cc(OC)c2c(c1)[C@@H](C(=O)OC)[C@H](c1ccc(OC)c(OC)c1)O2`, the GI50 in the test with OVCAR-4 ovarian is 4.76 µM; in the test with NCI-H460 lung, 3.9 µM; in the test with MOLT-4 leukemia, 1.73 µM; in the test with SF-295 CNS, 0.715 µM; in the test on SW-620 colon it was 0.561 µM; in the test with LOX IMVI melanoma it was 0.771 µM. The GI50 in the test with HS 578T breast is 1.7 µM. In addition, the TGI in the test on OVCAR-4 ovarian, in the test with UACC-257 melanoma, in the test with NCI-H460 lung, in the test with MOLT-4 leukemia, with SF-295 CNS and in the test with SW-620 colon was above 100 µM in each case. Also, the TGI in the test on LOX IMVI melanoma and with HS 578T breast was above 100 µM each time.

`COc1ccc2c(c1)[n+](=O)c(C(=O)C/C(=N\NC(=O)C[N+](C)(C)C)C(=O)Nc1cc(Cl)ccc1Cl)c(C)n2O`: the TGI with OVCAR-4 ovarian, with UACC-257 melanoma, with NCI-H460 lung, in the test with HL-60(TB) leukemia, with MOLT-4 leukemia and in the test with SF-295 CNS was above 100 µM in each case. Besides, the TGI with SW-620 colon and with LOX IMVI melanoma was above 100 µM each time.

Turning to `COc1cccc(/C=N/[N-]C(N)=O)c1[O-].[Cu+2].c1ccncc1`, the TGI in the test with OVCAR-4 ovarian is 56.2 µM; in the test on UACC-257 melanoma, above 100 µM; with NCI-H460 lung, 31.9 µM; with HL-60(TB) leukemia, 55.1 µM; in the test on MOLT-4 leukemia it was 69.3 µM; in the test on SF-295 CNS, 62.4 µM. Moreover, the TGI is 40.8 µM in the test on SW-620 colon and 36.5 µM in the test with LOX IMVI melanoma. Further, the GI50 in the test on HL-60(TB) leukemia is 26.5 µM.

For `O=C(c1ccccc1)C(c1ccccc1)C1(O)C(=O)Nc2ccc(Br)cc21` (stereo unspecified), the TGI with OVCAR-4 ovarian was above 100 µM; in the test on UACC-257 melanoma, 53.8 µM; with NCI-H460 lung, above 100 µM; in the test on HL-60(TB) leukemia, 48.2 µM; with MOLT-4 leukemia it was above 100 µM; in the test on SF-295 CNS, above 100 µM. Besides, the TGI in the test with SW-620 colon is above 100 µM.

Consider `Cn1c(=O)ccc2cc(C(=O)c3ccccc3)ccc21`, for which the TGI in the test with OVCAR-4 ovarian, with NCI-H460 lung, in the test on HL-60(TB) leukemia, in the test on MOLT-4 leukemia, with SF-295 CNS and with SW-620 colon was above 100 µM each time. Also, in the test on LOX IMVI melanoma, the TGI was above 100 µM.

On to `CCn1cc(C(=O)O)c(=O)c2cc(F)c(N3CCNCC3)nc21`, for which the TGI with OVCAR-4 ovarian, with UACC-257 melanoma, in the test on NCI-H460 lung, in the test on HL-60(TB) leukemia, in the test with MOLT-4 leukemia and in the test with SF-295 CNS was above 100 µM each time. For the same molecule, the TGI in the test on SW-620 colon and with LOX IMVI melanoma was above 100 µM each time.

On to `CCOC(=O)/C(C#N)=C/c1[nH]c(C)c(C)c1C`, for which the TGI with OVCAR-4 ovarian, with UACC-257 melanoma, in the test on NCI-H460 lung, in the test with HL-60(TB) leukemia, with MOLT-4 leukemia and in the test on SF-295 CNS was above 100 µM each time. The TGI in the test on SW-620 colon and in the test with LOX IMVI melanoma was above 100 µM in each case.
